These results are taken from ChEMBL document CHEMBL1671810, “Identification of a novel scaffold for allosteric inhibition of wild type and drug resistant HIV-1 reverse transcriptase by fragment library screening” (J Med Chem, 2011).

The target in assay [1] is T1, Human immunodeficiency virus type 1 reverse transcriptase (Human immunodeficiency virus 1, UniProt Q72547, L100I). The assay can be described thus: Binding affinity to HIV1 BH10 isolate reverse transcriptase L100I mutant expressed in Escherichia coli BL21(DE3). On the set-up: species or system Human immunodeficiency virus type 1 BH10.
In assay [2] the target is T2, Human immunodeficiency virus type 1 reverse transcriptase (Human immunodeficiency virus 1, UniProt Q72547, K103N). The assay can be described thus: Binding affinity to HIV1 BH10 isolate reverse transcriptase K103N mutant expressed in Escherichia coli BL21(DE3). Also noted: species or system Human immunodeficiency virus type 1 BH10.
The nature of assay [3]: Inhibition of wild type HIV1 BH10 isolate reverse transcriptase catalytic activity expressed in Escherichia coli BL21(DE3) by UV-vis spectrophotometry. Also noted: species or system Human immunodeficiency virus type 1 BH10.
In assay [4] the target is T3, Human immunodeficiency virus type 1 reverse transcriptase (Human immunodeficiency virus 1, UniProt Q72547, Y181C). The assay can be described thus: Binding affinity to HIV1 BH10 isolate reverse transcriptase Y181C mutant expressed in Escherichia coli BL21(DE3). Also noted: species or system Human immunodeficiency virus type 1 BH10.
Assay [5] can be described thus: Binding affinity to wild type HIV1 BH10 isolate reverse transcriptase expressed in Escherichia coli BL21(DE3). On the set-up: species or system Human immunodeficiency virus type 1 BH10.
Assay [6] has as its system Human immunodeficiency virus type 1 BH10. The assay is described as follows: Displacement of nevirapine from wild type HIV1 BH10 isolate reverse transcriptase expressed in Escherichia coli BL21(DE3) by competition assay.
Assay [7] has as its target T1, Human immunodeficiency virus type 1 reverse transcriptase. The assay can be described thus: Inhibition of HIV1 BH10 isolate reverse transcriptase L100I mutant catalytic activity expressed in Escherichia coli BL21(DE3) by UV-vis spectrophotometry. On the set-up: species or system Human immunodeficiency virus type 1 BH10.
Assay [8] has as its target T3, Human immunodeficiency virus type 1 reverse transcriptase. The assay can be described thus: Inhibition of HIV1 BH10 isolate reverse transcriptase Y181C mutant catalytic activity expressed in Escherichia coli BL21(DE3) by UV-vis spectrophotometry. On the set-up: species or system Human immunodeficiency virus type 1 BH10.
The target of assay [9] is T2, Human immunodeficiency virus type 1 reverse transcriptase. The assay can be described thus: Inhibition of HIV1 BH10 isolate reverse transcriptase K103N mutant catalytic activity expressed in Escherichia coli BL21(DE3) by UV-vis spectrophotometry. On the set-up: species or system Human immunodeficiency virus type 1 BH10.

The source made the active and inactive calls. No cut-off for these calls is given here.

In general, Kd refers to the equilibrium constant for the complex coming apart. As a reminder, the IC50 is the concentration that inhibits the measured activity by half. Lower therefore signals greater potency in that assay. With `C/C(=N\O)c1ccc2c(c1)CCC2`, the Kd is 200 µM in assay [1], 50 µM in [2], 50 µM in assay [4] and 300 µM in assay [5]. Moreover, in assay [3], the IC50 came to 39 µM.
Consider `Cc1cc2c(cc1[N+](=O)[O-])OCO2`, for which the Kd worked out at 40 µM in [1], 20 µM in assay [2], 100 µM in assay [4] and 79 µM in [5]. Besides, in assay [3], the midpoint of inhibition, the IC50, lay at 150 µM.
For `CC(C)N1CCC(CCc2c[nH]cn2)CC1`, in [5], the Kd came to 88 µM.
Consider `Nc1cccc(-c2ccccc2)n1`, for which, in assay [6], the result was inactive.
Compound `CCCCCCCCNC(=O)NCc1ccc(O)c(CO)c1` returned a Kd in assay [5] of 190 µM.
Take `O=C(c1ccncc1)c1ccc(Cl)cc1`: the Kd in [1] was 60 µM; in assay [2], 600 µM; in assay [4], 700 µM; in assay [5], greater than 500 µM. The compound further came in with a concentration for half-maximal inhibition (IC50) in assay [3] of 96 µM.
For the compound `Cc1ccc(O)cc1`, the outcome in assay [6] was inactive.
For `COC(=O)C1=C(C)NC(=S)NC1C` (stereo not given), half-maximal inhibition in assay [3] (IC50) was put at 570 µM. In addition, the Kd in assay [4] was found to be 700 µM; in assay [5], 380 µM.
Turning to `C=CCNc1scnc1S(=O)(=O)c1ccccc1`, the dissociation constant Kd is 90 µM in [1], 700 µM in assay [2], 200 µM in assay [4] and 210 µM in assay [5]. In assay [3], this compound registered a half-inhibitory concentration (IC50) of 5 µM.
The matching figures for `O=C1c2ccccc2CCc2ncccc21`: 200 µM, 50 µM, 300 µM, 180 µM and 430 µM.
As to `O=C1CCc2c(Br)cccc21`, the dissociation constant Kd was found to be 40 µM in [1], 20 µM in [2], 40 µM in assay [4] and 270 µM in [5]. For the same compound, the IC50 in assay [7] was found to be 25 µM; in assay [8], 16 µM; in assay [3] it was 4 µM; in assay [9], 16 µM.
